# Biological target: recombinant human HPK1 (Homo sapiens (Human), UniProt Q92918)
# Test: HPK1 kinase assay (ADP-Glo)
# Type: biochemical
# Settings: 25 μM ATP, MBP substrate
# Procedure, shortened: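 Activity was read as ADP formed, detected by ADP-Glo luminescence after the reaction of 5 ng recombinant human HPK1 with MBP and ATP (stocks 0.5 μg/μl and 25 μM) for 40 min at 30 °C. Buffer was Tris pH 7.5 with MgCl2, BSA and DTT, with compound in 0.5% DMSO. IC50 came from inhibition curves.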
# Sequence of recombinant human HPK1 (Q92918 whole entry): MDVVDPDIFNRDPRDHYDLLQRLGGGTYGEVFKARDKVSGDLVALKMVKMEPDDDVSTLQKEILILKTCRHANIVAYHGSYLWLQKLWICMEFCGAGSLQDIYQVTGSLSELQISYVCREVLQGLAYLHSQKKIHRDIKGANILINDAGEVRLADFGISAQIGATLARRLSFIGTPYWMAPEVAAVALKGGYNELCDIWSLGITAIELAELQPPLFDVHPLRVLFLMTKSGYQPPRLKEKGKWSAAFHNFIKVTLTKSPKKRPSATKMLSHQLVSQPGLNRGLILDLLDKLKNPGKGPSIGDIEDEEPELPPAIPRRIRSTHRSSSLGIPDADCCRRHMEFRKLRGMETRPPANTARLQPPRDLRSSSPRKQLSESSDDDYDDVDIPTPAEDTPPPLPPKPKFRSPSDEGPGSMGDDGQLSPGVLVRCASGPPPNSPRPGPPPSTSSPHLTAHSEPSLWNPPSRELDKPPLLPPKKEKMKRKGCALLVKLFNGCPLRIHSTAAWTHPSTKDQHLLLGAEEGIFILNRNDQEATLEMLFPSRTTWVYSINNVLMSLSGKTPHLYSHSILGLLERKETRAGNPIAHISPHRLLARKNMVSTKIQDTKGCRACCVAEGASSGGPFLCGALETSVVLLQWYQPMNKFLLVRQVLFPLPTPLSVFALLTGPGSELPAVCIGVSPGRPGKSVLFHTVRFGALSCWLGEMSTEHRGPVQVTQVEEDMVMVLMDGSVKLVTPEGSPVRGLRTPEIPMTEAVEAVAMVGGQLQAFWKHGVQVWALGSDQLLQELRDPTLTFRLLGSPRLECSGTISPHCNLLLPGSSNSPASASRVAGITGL
row,Compound,IC50 [nM]
1,"C=CC(=O)Nc1c(F)c(Cl)c(-c2ccc3nc(NC(=O)[C@@H]4C[C@@H]4F)sc3c2)c2cn[nH]c12 [Example 72, (1S,2S)-N-(6-(7-acrylamido-5-chloro-6-fluoro-1H-indazol-4-yl)benzo[d]thiazol-2-yl)-2-fluorocyclopropane-1-carboxamide]",101 to 500
2,"NC(=O)c1c(F)c(Cl)c(-c2ccc3nc(NC(=O)[C@@H]4C[C@@H]4F)sc3c2)c2cn[nH]c12 [Example 135, 5-chloro-6-fluoro-4-(2-((1S,2S)-2-fluorocyclopropane-1-carboxamido)benzo[d]thiazol-6-yl)-1H-indazole-7-carboxamide]",> 1000
3,"Cc1c(F)c(C(=O)O)c2[nH]ncc2c1-c1ccn2nc(NC(=O)[C@@H]3C[C@@H]3F)cc2c1 [Example 549, 6-fluoro-4-(2-((1S,2S)-2-fluorocyclopropane-1-carboxamido)pyrazolo[1,5-a]pyridin-5-yl)-5-methyl-1H-indazole-7-carboxylic acid]",> 1000
4,"NC(=O)c1c(F)c(Cl)c(-c2ccc3nc(NC(=O)[C@@H]4C[C@@H]4F)cn3c2)c2cn[nH]c12 [Example 325, 5-chloro-6-fluoro-4-(2-((1S,2S)-2-fluorocyclopropane-1-carboxamido)imidazo[1,2-a]pyridin-6-yl)-1H-indazole-7-carboxamide]",> 1000
5,"CSc1c(F)c(F)c2[nH]ncc2c1-c1ccn2nc(NC(=O)[C@@H]3C[C@H]3F)cc2c1 [Example 599, (1S,2R)-N-(5-(6,7-difluoro-5-(methylthio)-1H-indazol-4-yl)pyrazolo[1,5-a]pyridin-2-yl)-2-fluorocyclopropane-1-carboxamide]",< 100
6,"C=CC(=O)Nc1cc(C)c(-c2ccc3nc(NC(=O)[C@@H]4C[C@@H]4F)cn3c2)c2cn[nH]c12 [Example 274, (1S,2S)-N-(6-(7-acrylamido-5-methyl-1H-indazol-4-yl)imidazo[1,2-a]pyridin-2-yl)-2-fluorocyclopropane-1-carboxamide]",< 100
7,"Cc1c(F)cc2[nH]ncc2c1-c1ccc2nc(NC(=O)[C@@H]3C[C@@H]3F)cn2c1 [Example 250, (1S,2S)-2-fluoro-N-(6-(6-fluoro-5-methyl-1H-indazol-4-yl)imidazo[1,2-a]pyridin-2-yl)cyclopropane-1-carboxamide]",< 100
8,"COc1c(F)c(C)c(-c2ccc3nc(NC(=O)[C@@H]4C[C@@H]4F)cn3c2)c2cn[nH]c12 [Example 271, (1S,2S)-2-fluoro-N-(6-(6-fluoro-7-methoxy-5-methyl-1H-indazol-4-yl)imidazo[1,2-a]pyridin-2-yl)cyclopropane-1-carboxamide]",< 100
9,"Cc1c(F)c(C(F)F)c2[nH]ncc2c1-c1ccn2nc(NC(=O)[C@@H]3C[C@@H]3F)cc2c1 [Example 591, (1S,2S)-N-(5-(7-(difluoromethyl)-6-fluoro-5-methyl-1H-indazol-4-yl)pyrazolo[1,5-a]pyridin-2-yl)-2-fluorocyclopropane-1-carboxamide]",< 100
10,"N#Cc1ccc2[nH]ncc2c1-c1ccc2nc(NC(=O)C3CC3)cn2c1 [Example 232, N-(6-(5-cyano-1H-indazol-4-yl)imidazo[1,2-a]pyridin-2-yl)cyclopropanecarboxamide]",< 100
11,"CNC(=O)c1c(F)c(Cl)c(-c2ccc3nc(NC(=O)[C@@H]4C[C@@H]4F)cn3c2)c2cn[nH]c12 [Example 321, 5-chloro-6-fluoro-4-(2-((1S,2S)-2-fluorocyclopropane-1-carboxamido)imidazo[1,2-a]pyridin-6-yl)-N-methyl-1H-indazole-7-carboxamide]",< 100
12,"CCc1c(F)c(F)c2[nH]ncc2c1-c1ccc2nc(NC(=O)[C@@H]3C[C@@H]3F)cn2c1 [Example 298, (1S,2S)-N-(6-(5-ethyl-6,7-difluoro-1H-indazol-4-yl)imidazo[1,2-a]pyridin-2-yl)-2-fluorocyclopropane-1-carboxamide]",< 100
13,"O=C(Nc1cc2cc(-c3c(C(F)F)ccc4[nH]ncc34)ccn2n1)[C@@H]1C[C@@H]1F [Example 465, (1S,2S)-N-(5-(5-(difluoromethyl)-1H-indazol-4-yl)pyrazolo[1,5-a]pyridin-2-yl)-2-fluorocyclopropane-1-carboxamide]",< 100
14,"CP(C)(=O)c1c(F)c(Cl)c(-c2ccc3nc(NC(=O)[C@@H]4C[C@@H]4F)cn3c2)c2cn[nH]c12 [Example 259, (1S,2S)-N-(6-(5-chloro-7-(dimethylphosphoryl)-6-fluoro-1H-indazol-4-yl)imidazo[1,2-a]pyridin-2-yl)-2-fluorocyclopropane-1-carboxamide]",> 1000
15,"CC(c1c(F)c(Cl)c(-c2ccc3nc(NC(=O)[C@@H]4C[C@@H]4F)cn3c2)c2cn[nH]c12)n1cnnn1 (stereo partly drawn) [Example 398, (1S,2S)-N-(6-(7-(1-(1H-tetrazol-1-yl)ethyl)-5-chloro-6-fluoro-1H-indazol-4-yl)imidazo[1,2-a]pyridin-2-yl)-2-fluorocyclopropane-1-carboxamide]",< 100
16,"CNc1ccc2[nH]ncc2c1-c1ccc2nc(NC(=O)C3CC3)cn2c1 [Example 229, N-(6-(5-(methylamino)-1H-indazol-4-yl)imidazo[1,2-a]pyridin-2-yl)cyclopropanecarboxamide]",< 100
17,"CNC(=O)c1c(F)c(C)c(-c2ccc3nc(NC(=O)[C@@H]4C[C@@H]4F)cn3c2)c2cn[nH]c12 [Example 338, 6-fluoro-4-(2-((1S,2S)-2-fluorocyclopropane-1-carboxamido)imidazo[1,2-a]pyridin-6-yl)-N,5-dimethyl-1H-indazole-7-carboxamide]",101 to 500
18,"C[C@@H](c1c(F)c(Cl)c(-c2ccc3nc(NC(=O)[C@@H]4C[C@@H]4F)cn3c2)c2cn[nH]c12)n1cnnn1 [Example 414, (1S,2S)-N-(6-(7-((S)-1-(1H-tetrazol-1-yl)ethyl)-5-chloro-6-fluoro-1H-indazol-4-yl)imidazo[1,2-a]pyridin-2-yl)-2-fluorocyclopropane-1-carboxamide]",< 100

# The next lines start with the values.
row,IC50 [nM],Compound
1,< 100,"N#CCNc1c(F)c(Cl)c(-c2ccc3nc(NC(=O)[C@@H]4C[C@@H]4F)cn3c2)c2cn[nH]c12 [Example 366, (1S,2S)-N-(6-(5-chloro-7-((cyanomethyl)amino)-6-fluoro-1H-indazol-4-yl)imidazo[1,2-a]pyridin-2-yl)-2-fluorocyclopropane-1-carboxamide]"
2,< 100,"CO[C@H](C)[C@@H](OC)c1c(F)c(Cl)c(-c2ccc3nc(NC(=O)[C@@H]4C[C@@H]4F)cn3c2)c2cn[nH]c12 [Example 440, (1S,2S)-N-(6-(5-chloro-7-((1S,2R)-1,2-dimethoxypropyl)-6-fluoro-1H-indazol-4-yl)imidazo[1,2-a]pyridin-2-yl)-2-fluorocyclopropane-1-carboxamide]"
3,< 100,"CNNc1c(F)c(Cl)c(-c2ccc3nc(NC(=O)[C@@H]4C[C@@H]4F)cn3c2)c2cn[nH]c12 [Example 317, (1S,2S)-N-(6-(5-chloro-6-fluoro-7-(2-methylhydrazineyl)-1H-indazol-4-yl)imidazo[1,2-a]pyridin-2-yl)-2-fluorocyclopropane-1-carboxamide]"
4,< 100,"CSc1c(F)cc(-c2ccn3nc(NC(=O)[C@@H]4C[C@@H]4F)cc3c2)c2cn[nH]c12 [Example 589, (1S,2S)-2-fluoro-N-(5-(6-fluoro-7-(methylthio)-1H-indazol-4-yl)pyrazolo[1,5-a]pyridin-2-yl)cyclopropane-1-carboxamide]"
5,< 100,"CC(Nc1c(F)c(Cl)c(-c2ccn3nc(NC(=O)[C@@H]4C[C@@H]4F)cc3c2)c2cn[nH]c12)C1CC1 (stereo partly drawn) [Example 653, (1S,2S)-N-(5-(5-chloro-7-((1-cyclopropylethyl)amino)-6-fluoro-1H-indazol-4-yl)pyrazolo[1,5-a]pyridin-2-yl)-2-fluorocyclopropane-1-carboxamide]"
6,< 100,"CCNC(=O)C(C)c1c(F)c(Cl)c(-c2ccc3nc(NC(=O)[C@@H]4C[C@@H]4F)cn3c2)c2cn[nH]c12 (stereo partly drawn) [Example 445, (1S,2S)-N-(6-(5-chloro-7-(1-(ethylamino)-1-oxopropan-2-yl)-6-fluoro-1H-indazol-4-yl)imidazo[1,2-a]pyridin-2-yl)-2-fluorocyclopropane-1-carboxamide]"
7,< 100,"O=C(Nc1nc2ccc(-c3c(C(F)(F)F)c(F)cc4[nH]ncc34)cc2s1)[C@@H]1C[C@@H]1F [Example 50, (1S,2S)-2-fluoro-N-(6-(6-fluoro-5-(trifluoromethyl)-1H-indazol-4-yl)benzo[d]thiazol-2-yl)cyclopropane-1-carboxamide]"
8,< 100,"O=C(Nc1cn2cc(-c3c(Cl)ccc4[nH]ncc34)ccc2n1)C1CC1 [Example 223, N-(6-(5-chloro-1H-indazol-4-yl)imidazo[1,2-a]pyridin-2-yl)cyclopropanecarboxamide]"
9,< 100,"CC(C)Oc1c(F)c(Cl)c(-c2ccc3nc(NC(=O)[C@@H]4C[C@@H]4F)cn3c2)c2cn[nH]c12 [Example 404, (1S,2S)-N-(6-(5-chloro-6-fluoro-7-isopropoxy-1H-indazol-4-yl)imidazo[1,2-a]pyridin-2-yl)-2-fluorocyclopropane-1-carboxamide]"
10,< 100,"CC(C)c1c(F)c(Cl)c(-c2ccn3nc(NC(=O)[C@@H]4C[C@@H]4F)cc3c2)c2cn[nH]c12 [Example 640, (1S,2S)-N-(5-(5-chloro-6-fluoro-7-isopropyl-1H-indazol-4-yl)pyrazolo[1,5-a]pyridin-2-yl)-2-fluorocyclopropane-1-carboxamide]"
11,< 100,"O=C(Nc1cn2cc(-c3c(Cl)c(F)c(Cn4ncnn4)c4[nH]ncc34)ccc2n1)[C@@H]1C[C@@H]1F [Example 379, (1S,2S)-N-(6-(7-((2H-tetrazol-2-yl)methyl)-5-chloro-6-fluoro-1H-indazol-4-yl)imidazo[1,2-a]pyridin-2-yl)-2-fluorocyclopropane-1-carboxamide]"
12,< 100,"Cn1nnnc1-c1c(F)c(Cl)c(-c2ccc3nc(NC(=O)[C@@H]4C[C@@H]4F)cn3c2)c2cn[nH]c12 [Example 350, (1S,2S)-N-(6-(5-chloro-6-fluoro-7-(1-methyl-1H-tetrazol-5-yl)-1H-indazol-4-yl)imidazo[1,2-a]pyridin-2-yl)-2-fluorocyclopropane-1-carboxamide]"
